Data published in patent US20220081412A1, “QUINOLINYL-PYRAZINE-CARBOXAMIDE COMPOUNDS AND USES THEREOF” (The Regents of the University of Michigan, priority 2018, published 2022).

Tested on: MIA PaCa-2 cells
Test: Bru-seq analysis for nascent RNA synthesis (log2FC of genes, GSEA gene sets)
Format: cell-based, human
[1] = downregulated gene sets, C2, 4 h, MIA PaCa-2 cells

## CCN(CC)CCCC(C)Nc1cnc(C(=O)Nc2cc(C)cc3cccnc23)cn1 (stereo not drawn) [J4, 5-((5-(diethylamino)pentan-2-yl)amino)-N-(6-methylquinolin-8-yl)pyrazine-2-carboxamide]
  ES: 0.576
  NES: 1.841
  synthesis of INSIG1, DHCR7, MVK and MSMO1 RNAs: upregulated
4 h
  expression of GPR135, SPDYA and ABCA1: significant decrease
4 h of treatment
  Cell Cycle, Mitotic pathway: upregulated
AC004076.2, 4 h
  log2FC: −0.85
AC005534.1, 4 h
  log2FC: −0.75
AC005614.2, 4 h
  log2FC: −0.94
AC006141.1, 4 h
  log2FC: −0.78
AC007038.2, 4 h
  log2FC: −1.27
AC007619.1, 4 h
  log2FC: −0.84
AC007620.2, 4 h
  log2FC: −0.89
AC008115.3, 4 h
  log2FC: 0.78
AC008264.2, 4 h
  log2FC: −0.80
AC008906.1, 4 h
  log2FC: −0.98
AC010615.1, 4 h
  log2FC: −1.64
AC011379.1, 4 h
  log2FC: 0.74
AC018630.1, 4 h
  log2FC: −0.77
AC026461.1, 4 h
  log2FC: 0.86
AC068473.5, 4 h
  log2FC: 0.77
AC080080.1, 4 h
  log2FC: 0.72
AC087280.2, 4 h
  log2FC: −0.80
AC091152.2, 4 h
  log2FC: −1.06
AC091940.1, 4 h
  log2FC: −0.79
AC098934.1, 4 h
  log2FC: 0.72
AC108471.2, 4 h
  log2FC: 0.85
AC110769.2, 4 h
  log2FC: 0.80
AC117382.1, 4 h
  log2FC: −0.85
AC141586.1, 4 h
  log2FC: 0.77
AC239868.4, 4 h
  log2FC: 1.12
AL050343.1, 4 h
  log2FC: −0.82
AL133338.1, 4 h
  log2FC: 1.02
AL136984.1, 4 h
  log2FC: −1.05
AL136987.1, 4 h
  log2FC: −0.83
AL139260.1, 4 h
  log2FC: 0.88
AP001107.9, 4 h
  log2FC: 0.81
AP001830.1, 4 h
  log2FC: 0.75
AP002387.1, 4 h
  log2FC: 0.72
AP002748.3, 4 h
  log2FC: 0.76
AVPI1, 4 h
  log2FC: 1.37
BHLHE40, 4 h
  log2FC: 1.32
CASC21, 4 h
  log2FC: −0.87
CCNG2, 4 h
  log2FC: 1.62
DDIT3, 4 h
  log2FC: 1.32
DDIT4, 4 h
  log2FC: 2.33
DEPDC1-AS1, 4 h
  log2FC: 1.05
DHCR7, 4 h
  log2FC: 2.13
DNAJC3-AS1, 4 h
  log2FC: 0.75
EXTL3-AS1, 4 h
  log2FC: 0.73
FDFT1, 4 h
  log2FC: 1.65
FP671120.1, 4 h
  log2FC: −1.32
HIST1H1E, 4 h
  log2FC: 1.24
HIST1H3B, 4 h
  log2FC: 1.26
HMGCS1, 4 h
  log2FC: 1.35
HSD17B7P2, 4 h
  log2FC: 0.76
IDI1, 4 h
  log2FC: 1.49
INSIG1, 4 h
  log2FC: 2.57
KRT18P31, 4 h
  log2FC: 0.81
LINC01204, 4 h
  log2FC: −0.84
LINC01337, 4 h
  log2FC: −1.19
LINC01547, 4 h
  log2FC: 0.93
LINC01930, 4 h
  log2FC: −1.00
LIPG, 4 h
  log2FC: 1.81
LSS, 4 h
  log2FC: 1.25
MSMO1, 4 h
  log2FC: 1.65
MVD, 4 h
  log2FC: 1.36
MVK, 4 h
  log2FC: 1.68
NEU1, 4 h
  log2FC: 2.68
PCYT2, 4 h
  log2FC: 1.70
RNVU1-6, 4 h
  log2FC: −1.50
SCD, 4 h
  log2FC: 1.95
SDR39U1, 4 h
  log2FC: 1.67
SH2D5, 4 h
  log2FC: 1.29
SLC2A1-AS1, 4 h
  log2FC: 1.02
SLC2A6, 4 h
  log2FC: 1.74
SYPL1P2, 4 h
  log2FC: 0.84
TBC1D17, 4 h
  log2FC: 1.62
TPRKBP2, 4 h
  log2FC: −1.15
TUBA1A, 4 h
  log2FC: 1.24
ZNF295-AS1, 4 h
  log2FC: 0.94
[1]
  ES BILD_CTNNBl_ONCOGENIC_SIGNATURE: −0.449
  ES DACOSTA_UV_RESPONSE_VIA_ERCC3_COMMON_DN: −0.439
  ES DACOSTA_UV_RESPONSE_VIA_ERCC3_TTD_DN: −0.469
  ES DACOSTA_UV_RESPONSE_VIA_ERCC3_XPCS_DN: −0.428
  ES DAZARD_UV_RESPONSE_CLUSTER_G6: −0.408
  ES DOANE_BREAST_CANCER_CLASSES_DN: −0.578
  ES GABRIELY_MIR21_TARGETS: −0.328
  ES GUENTHER_GROWTH_SPHERICAL_VS_ADHERENT_DN: −0.531
  ES HAMAI_APOPTOSIS_VIA_TRAIL_UP: −0.368
  ES HAN_JNK_SINGALING_DN: −0.579
  ES HUTTMANN_B_CLL_POOR_SURVIVAL_DN: −0.606
  ES KEGG_NEUROACTIVE_LIGAND_RECEPTOR_INTERACTION: −0.624
  ES LEE_TARGETS_OF_PTCH1_AND_SUFU_UP: −0.515
  ES MARTINEZ_RESPONSE_TO_TRABECTEDIN: −0.482
  ES MILI_PSEUDOPODIA_HAPTOTAXIS_UP: −0.322
  ES RAMALHO_STEMNESS_UP: −0.331
  ES REACTOME_ASSOCIATION_OF_TRIC_CCT_WITH_TARGET_PROTEINS_DURING_BIOSYNTHESIS: −0.551
  ES SENGUPTA_NASOPHARYNGEAL_CARCINOMA_UP: −0.360
  ES SENGUPTA_NASOPHARYNGEAL_CARCINOMA_WITH_LMP1_UP: −0.365
  ES TCGA_GLIOBLASTOMA_COPY_NUMBER_DN: −0.533
  ES THUM_SYSTOLIC_HEART_FAILURE_DN: −0.352
  ES TURASHVILI_BREAST_LOBULAR_CARCINOMA_VS_DUCTAL_NORMAL_DN: −0.476
  ES ZHANG_TLX_TARGETS_36HR_DN: −0.470
  ES ZHANG_TLX_TARGETS_DN: −0.446
  ES ZHENG_FOXP3_TARGETS_IN_T_LYMPHOCYTE_DN: −0.611
  NES BILD_CTNNBl_ONCOGENIC_SIGNATURE: −1.841
  NES DACOSTA_UV_RESPONSE_VIA_ERCC3_COMMON_DN: −2.348
  NES DACOSTA_UV_RESPONSE_VIA_ERCC3_TTD_DN: −1.878
  NES DACOSTA_UV_RESPONSE_VIA_ERCC3_XPCS_DN: −1.784
  NES DAZARD_UV_RESPONSE_CLUSTER_G6: −1.855
  NES DOANE_BREAST_CANCER_CLASSES_DN: −1.830
  NES GABRIELY_MIR21_TARGETS: −1.642
  NES GUENTHER_GROWTH_SPHERICAL_VS_ADHERENT_DN: −1.656
  NES HAMAI_APOPTOSIS_VIA_TRAIL_UP: −1.942
  NES HAN_JNK_SINGALING_DN: −1.665
  NES HUTTMANN_B_CLL_POOR_SURVIVAL_DN: −2.076
  NES KEGG_NEUROACTIVE_LIGAND_RECEPTOR_INTERACTION: −1.898
  NES LEE_TARGETS_OF_PTCH1_AND_SUFU_UP: −1.661
  NES MARTINEZ_RESPONSE_TO_TRABECTEDIN: −1.727
  NES MILI_PSEUDOPODIA_HAPTOTAXIS_UP: −1.718
  NES RAMALHO_STEMNESS_UP: −1.615
  NES REACTOME_ASSOCIATION_OF_TRIC_CCT_WITH_TARGET_PROTEINS_DURING_BIOSYNTHESIS: −1.804
  NES SENGUPTA_NASOPHARYNGEAL_CARCINOMA_UP: −1.794
  NES SENGUPTA_NASOPHARYNGEAL_CARCINOMA_WITH_LMP1_UP: −1.837
  NES TCGA_GLIOBLASTOMA_COPY_NUMBER_DN: −1.738
  NES THUM_SYSTOLIC_HEART_FAILURE_DN: −1.673
